Data as given in ChEMBL document CHEMBL3044875, “Synthesis and antimicrobial activity of some bisoctahydroxanthene-1,8-dione derivatives” (2011).
Calls of active or inactive are those of the source. No cut-off for these calls is given here.

Columns and labels:
Staphylococcus aureus [1] = assay: Antibacterial activity against Staphylococcus aureus ATCC 25923 at 40 ug/disc after 24 hr by disk diffusion method; type: functional; settings: for zone of inhibition at 40 µg/disc: ATCC 25923, 24 h, read-out: DIZ
Proteus vulgaris [2] = assay: Antibacterial activity against Proteus vulgaris NRRL-B-123 at 140 ug/disk after 24 hr by disk diffusion method; type: functional, organism-based
Bacillus cereus [3] = assay: Antibacterial activity against Bacillus cereus NRRL 3711 at 140 ug/disk after 24 hr by disk diffusion method; type: functional; settings: for zone of inhibition at 140 µg/disc: NRRL 3711, 24 h, read-out: DIZ
Bacillus cereus [4] = assay: Antibacterial activity against Bacillus cereus NRRL 3711 at 40 ug/disk after 24 hr by disk diffusion method; type: functional; settings: for zone of inhibition at 40 µg/disc: NRRL 3711, 24 h, read-out: DIZ
Rhodotorula mucilaginosa [5] = assay: Antifungal activity against Rhodotorula mucilaginosa at 140 ug/disk after 48 hr by disk diffusion method; type: functional; settings: for zone of inhibition at 140 µg/disc: read-out: DIZ
Pseudomonas aeruginosa [6] = assay: Antibacterial activity against Pseudomonas aeruginosa ATCC 27853 at 40 ug/disk after 24 hr by disk-diffusion method; type: functional, organism-based
Nocardia [7] = assay: Antibacterial activity against Nocardia canis at 20 ug/disk after 24 hr by disk diffusion method; type: functional, organism-based
Candida albicans [8] = assay: Antifungal activity against Candida albicans ATCC 10231 at 140 ug/disk after 48 hr by disk-diffusion method; type: functional; settings: for zone of inhibition at 140 µg/disc: ATCC 10231, 48 h, read-out: DIZ
Pseudomonas aeruginosa [9] = assay: Antibacterial activity against Pseudomonas aeruginosa ATCC 27853 at 20 ug/disk after 24 hr by disk-diffusion method; type: functional, organism-based
Aspergillus niger [10] = assay: Antifungal activity against Aspergillus niger ATCC 10949 at 20 ug/disk after 72 hr by disk diffusion method; type: functional, organism-based
[11] = tested on: Staphylococcus epidermidis; assay: Antibacterial activity against Staphylococcus epidermidis ATCC 12228 at 20 ug/disk after 24 hr by disk diffusion method; type: functional, organism-based
Escherichia coli [12] = assay: Antibacterial activity against Escherichia coli ATCC 25922 at 20 ug/disk after 24 hr by disk-diffusion method; type: functional
[13] = tested on: Staphylococcus epidermidis; assay: Antibacterial activity against Staphylococcus epidermidis ATCC 12228 at 140 ug/disk after 24 hr by disk diffusion method; type: functional; settings: for zone of inhibition at 140 µg/disc: ATCC 12228, 24 h, read-out: DIZ
Candida albicans [14] = assay: Antifungal activity against Candida albicans ATCC 10231 at 40 ug/disk after 48 hr by disk-diffusion method; type: functional; settings: for zone of inhibition at 40 µg/disc: ATCC 10231, 48 h, read-out: DIZ
Aspergillus niger [15] = assay: Antifungal activity against Aspergillus niger ATCC 10949 at 140 ug/disk after 72 hr by disk diffusion method; type: functional; settings: for zone of inhibition at 140 µg/disc: ATCC 10949, 72 h, read-out: DIZ
Pseudomonas aeruginosa [16] = assay: Antibacterial activity against Pseudomonas aeruginosa ATCC 27853 at 140 ug/disk after 24 hr by disk-diffusion method; type: functional, organism-based
Escherichia coli [17] = assay: Antibacterial activity against Escherichia coli ATCC 25922 at 40 ug/disk after 24 hr by disk-diffusion method; type: functional
Rhodotorula mucilaginosa [18] = assay: Antifungal activity against Rhodotorula mucilaginosa at 20 ug/disk after 48 hr by disk diffusion method; type: functional; settings: for zone of inhibition at 20 µg/disc: read-out: DIZ
Proteus vulgaris [19] = assay: Antibacterial activity against Proteus vulgaris NRRL-B-123 at 40 ug/disk after 24 hr by disk diffusion method; type: functional, organism-based
Nocardia [20] = assay: Antibacterial activity against Nocardia canis at 40 ug/disk after 24 hr by disk diffusion method; type: functional
Nocardia [21] = assay: Antibacterial activity against Nocardia canis at 140 ug/disk after 24 hr by disk diffusion method; type: functional
Bacillus cereus [22] = assay: Antibacterial activity against Bacillus cereus NRRL 3711 at 20 ug/disk after 24 hr by disk diffusion method; type: functional; settings: for zone of inhibition at 20 µg/disc: NRRL 3711, 24 h, read-out: DIZ
Proteus vulgaris [23] = assay: Antibacterial activity against Proteus vulgaris NRRL-B-123 at 20 ug/disk after 24 hr by disk diffusion method; type: functional, organism-based
[24] = tested on: Staphylococcus epidermidis; assay: Antibacterial activity against Staphylococcus epidermidis ATCC 12228 at 40 ug/disk after 24 hr by disk diffusion method; type: functional
Staphylococcus aureus [25] = assay: Antibacterial activity against Staphylococcus aureus ATCC 25923 at 20 ug/disc after 24 hr by disk diffusion method; type: functional; settings: for zone of inhibition at 20 µg/disc: ATCC 25923, 24 h, read-out: DIZ
Rhodotorula mucilaginosa [26] = assay: Antifungal activity against Rhodotorula mucilaginosa at 40 ug/disk after 48 hr by disk diffusion method; type: functional; settings: for zone of inhibition at 40 µg/disc: read-out: DIZ
Candida albicans [27] = assay: Antifungal activity against Candida albicans ATCC 10231 at 20 ug/disk after 48 hr by disk-diffusion method; type: functional; settings: for zone of inhibition at 20 µg/disc: ATCC 10231, 48 h, read-out: DIZ
Aspergillus niger [28] = assay: Antifungal activity against Aspergillus niger ATCC 10949 at 40 ug/disk after 72 hr by disk diffusion method; type: functional, organism-based
Escherichia coli [29] = assay: Antibacterial activity against Escherichia coli ATCC 25922 at 140 ug/disk after 24 hr by disk-diffusion method; type: functional
Staphylococcus aureus [30] = assay: Antibacterial activity against Staphylococcus aureus ATCC 25923 at 140 ug/disc after 24 hr by disk diffusion method; type: functional; settings: for zone of inhibition at 140 µg/disc: ATCC 25923, 24 h, read-out: DIZ
Rhodotorula mucilaginosa [31] = assay: Antifungal activity against Rhodotorula mucilaginosa at 100 U/disk after 48 hr by disk diffusion method; type: functional, organism-based
[32] = ATCC 25922, 24 h, read-out: DIZ

| Compound | diameter of the inhibition zone (DIZ) (Staphylococcus aureus [1]) | diameter of the inhibition zone (DIZ) (Proteus vulgaris [2]) | zone of inhibition at 140 µg/disc (Bacillus cereus [3]) | diameter of the inhibition zone (DIZ) (Pseudomonas aeruginosa [6]) | diameter of the inhibition zone (DIZ) (Nocardia [7]) | zone of inhibition at 140 µg/disc (Candida albicans [8]) | diameter of the inhibition zone (DIZ) (Pseudomonas aeruginosa [9]) | diameter of the inhibition zone (DIZ) (Aspergillus niger [10]) | diameter of the inhibition zone (DIZ) [11] | diameter of the inhibition zone (DIZ) (Escherichia coli [12]) | zone of inhibition at 40 µg/disc (Candida albicans [14]) | diameter of the inhibition zone (DIZ) (Pseudomonas aeruginosa [16]) | diameter of the inhibition zone (DIZ) (Escherichia coli [17]) | diameter of the inhibition zone (DIZ) (Proteus vulgaris [19]) | diameter of the inhibition zone (DIZ) (Nocardia [20]) | diameter of the inhibition zone (DIZ) (Nocardia [21]) | diameter of the inhibition zone (DIZ) (Proteus vulgaris [23]) | diameter of the inhibition zone (DIZ) [24] | diameter of the inhibition zone (DIZ) (Aspergillus niger [28]) | diameter of the inhibition zone (DIZ) (Escherichia coli [29]) | further results |
| --- | --- | --- | --- | --- | --- | --- | --- | --- | --- | --- | --- | --- | --- | --- | --- | --- | --- | --- | --- | --- | --- |
| O=C1CC(c2ccccc2)CC2=C1C(c1ccc(C3C4=C(CC(c5ccccc5)CC4=O)OC4=C3C(=O)CC(c3ccccc3)C4)cc1)C1=C(CC(c3ccccc3)CC1=O)O2 (stereo unspecified) | inactive | inactive | 10 mm | inactive | inactive | 8 mm | inactive | inactive | inactive | inactive | 8 mm | inactive | inactive | inactive | inactive | inactive | inactive | inactive | inactive | inactive | zone of inhibition at 40 µg/disc (Bacillus cereus [4]): 10 mm; zone of inhibition at 140 µg/disc (Rhodotorula mucilaginosa [5]): 7 mm; diameter of the inhibition zone (DIZ) [13]: inactive; diameter of the inhibition zone (DIZ) (Aspergillus niger [15]): inactive; diameter of the inhibition zone (DIZ) (Rhodotorula mucilaginosa [18]): inactive; zone of inhibition at 20 µg/disc (Bacillus cereus [22]): 8 mm; diameter of the inhibition zone (DIZ) (Staphylococcus aureus [25]): inactive; diameter of the inhibition zone (DIZ) (Rhodotorula mucilaginosa [26]): inactive; zone of inhibition at 20 µg/disc (Candida albicans [27]): 7 mm; diameter of the inhibition zone (DIZ) (Staphylococcus aureus [30]): inactive |
| CC1(C)CCC2=C(C1=O)C(c1cccc(C3C4=C(CCC(C)(C)C4=O)OC4=C3C(=O)C(C)(C)CC4)c1)C1=C(CCC(C)(C)C1=O)O2 | – | inactive | 9 mm | inactive | inactive | 9 mm | inactive | inactive | inactive | – | 9 mm | inactive | – | inactive | – | – | inactive | – | inactive | – | zone of inhibition at 40 µg/disc (Staphylococcus aureus [1]): 10 mm; zone of inhibition at 40 µg/disc (Bacillus cereus [4]): 9 mm; zone of inhibition at 140 µg/disc (Rhodotorula mucilaginosa [5]): 12 mm; zone of inhibition at 20 µg/disc (Escherichia coli [12]; [32]): 7 mm; zone of inhibition at 140 µg/disc [13]: 10 mm; zone of inhibition at 140 µg/disc (Aspergillus niger [15]): 7 mm; zone of inhibition at 40 µg/disc (Escherichia coli [17]; [32]): 8 mm; zone of inhibition at 20 µg/disc (Rhodotorula mucilaginosa [18]): 8 mm; zone of inhibition at 40 µg/disc (Nocardia [20]; read-out: DIZ): 7 mm; zone of inhibition at 140 µg/disc (Nocardia [21]; read-out: DIZ): 8 mm; zone of inhibition at 20 µg/disc (Bacillus cereus [22]): 8 mm; zone of inhibition at 40 µg/disc ([24]; ATCC 12228, 24 h, read-out: DIZ): 8 mm; zone of inhibition at 20 µg/disc (Staphylococcus aureus [25]): 8 mm; zone of inhibition at 40 µg/disc (Rhodotorula mucilaginosa [26]): 9 mm; zone of inhibition at 20 µg/disc (Candida albicans [27]): 8 mm; zone of inhibition at 140 µg/disc (Escherichia coli [29]; [32]): 9 mm; zone of inhibition at 140 µg/disc (Staphylococcus aureus [30]): 15 mm |
| O=C1CCCC2=C1C(c1ccc(C3C4=C(CCCC4=O)OC4=C3C(=O)CCC4)cc1)C1=C(CCCC1=O)O2 | – | inactive | 8 mm | inactive | inactive | 8 mm | inactive | inactive | inactive | inactive | 8 mm | inactive | inactive | inactive | inactive | inactive | inactive | inactive | inactive | inactive | zone of inhibition at 40 µg/disc (Staphylococcus aureus [1]): 10 mm; zone of inhibition at 40 µg/disc (Bacillus cereus [4]): 9 mm; zone of inhibition at 140 µg/disc (Rhodotorula mucilaginosa [5]): 10 mm; zone of inhibition at 140 µg/disc [13]: 7 mm; zone of inhibition at 140 µg/disc (Aspergillus niger [15]): 7 mm; zone of inhibition at 20 µg/disc (Rhodotorula mucilaginosa [18]): 8 mm; zone of inhibition at 20 µg/disc (Bacillus cereus [22]): 8 mm; zone of inhibition at 20 µg/disc (Staphylococcus aureus [25]): 8 mm; zone of inhibition at 40 µg/disc (Rhodotorula mucilaginosa [26]): 9 mm; zone of inhibition at 20 µg/disc (Candida albicans [27]): 7 mm; zone of inhibition at 140 µg/disc (Staphylococcus aureus [30]): 14 mm |
| COc1ccc(C2CC(=O)C3=C(C2)OC2=C(C(=O)CC(c4ccc(OC)c(OC)c4)C2)C3c2ccc(C3C4=C(CC(c5ccc(OC)c(OC)c5)CC4=O)OC4=C3C(=O)CC(c3ccc(OC)c(OC)c3)C4)cc2)cc1OC (stereo unspecified) | inactive | inactive | – | inactive | inactive | 7 mm | inactive | inactive | inactive | inactive | 7 mm | inactive | inactive | inactive | inactive | inactive | inactive | inactive | inactive | inactive | diameter of the inhibition zone (DIZ) (Bacillus cereus [3]): inactive; diameter of the inhibition zone (DIZ) (Bacillus cereus [4]): inactive; diameter of the inhibition zone (DIZ) (Rhodotorula mucilaginosa [5]): inactive; diameter of the inhibition zone (DIZ) [13]: inactive; diameter of the inhibition zone (DIZ) (Aspergillus niger [15]): inactive; diameter of the inhibition zone (DIZ) (Rhodotorula mucilaginosa [18]): inactive; diameter of the inhibition zone (DIZ) (Bacillus cereus [22]): inactive; diameter of the inhibition zone (DIZ) (Staphylococcus aureus [25]): inactive; diameter of the inhibition zone (DIZ) (Rhodotorula mucilaginosa [26]): inactive; diameter of the inhibition zone (DIZ) (Candida albicans [27]): inactive; diameter of the inhibition zone (DIZ) (Staphylococcus aureus [30]): inactive |
| NYSTATIN | – | – | – | – | – | – | – | – | – | – | – | – | – | – | – | – | – | – | – | – | inhibition zone (IZ) (Rhodotorula mucilaginosa [31]): 21 mm |
| CC1(C)CCC2=C(C1=O)C(c1ccc(C3C4=C(CCC(C)(C)C4=O)OC4=C3C(=O)C(C)(C)CC4)cc1)C1=C(CCC(C)(C)C1=O)O2 | inactive | inactive | – | inactive | inactive | – | inactive | inactive | inactive | inactive | – | inactive | inactive | inactive | inactive | inactive | inactive | inactive | inactive | inactive | diameter of the inhibition zone (DIZ) (Bacillus cereus [3]): inactive; diameter of the inhibition zone (DIZ) (Bacillus cereus [4]): inactive; diameter of the inhibition zone (DIZ) (Rhodotorula mucilaginosa [5]): inactive; diameter of the inhibition zone (DIZ) (Candida albicans [8]): inactive; diameter of the inhibition zone (DIZ) [13]: inactive; diameter of the inhibition zone (DIZ) (Candida albicans [14]): inactive; zone of inhibition at 140 µg/disc (Aspergillus niger [15]): 7 mm; diameter of the inhibition zone (DIZ) (Rhodotorula mucilaginosa [18]): inactive; diameter of the inhibition zone (DIZ) (Bacillus cereus [22]): inactive; diameter of the inhibition zone (DIZ) (Staphylococcus aureus [25]): inactive; diameter of the inhibition zone (DIZ) (Rhodotorula mucilaginosa [26]): inactive; diameter of the inhibition zone (DIZ) (Candida albicans [27]): inactive; diameter of the inhibition zone (DIZ) (Staphylococcus aureus [30]): inactive |
